Measured values from patent publication US20130165446A1 (priority 2010, published 2013).
One block for each compound: values may come before it.

Tests used:
[1] = target: T1, human recombinant (CHO cell) AT1 receptor (Homo sapiens, UniProt P30556); test: Angiotensin II inhibition test (radioligand binding to AT1 receptor); details: test compound concentration 10^−9 M, radioactive iodine-labeled angiotensin II, 37° C., sixty minutes; for inhibition at 0.001 µM: read-out: Inhibition rate (%)
T1 construct: expressed in transfected cells; host or cells: CHO cells
T1 sequence (P30556 1-359): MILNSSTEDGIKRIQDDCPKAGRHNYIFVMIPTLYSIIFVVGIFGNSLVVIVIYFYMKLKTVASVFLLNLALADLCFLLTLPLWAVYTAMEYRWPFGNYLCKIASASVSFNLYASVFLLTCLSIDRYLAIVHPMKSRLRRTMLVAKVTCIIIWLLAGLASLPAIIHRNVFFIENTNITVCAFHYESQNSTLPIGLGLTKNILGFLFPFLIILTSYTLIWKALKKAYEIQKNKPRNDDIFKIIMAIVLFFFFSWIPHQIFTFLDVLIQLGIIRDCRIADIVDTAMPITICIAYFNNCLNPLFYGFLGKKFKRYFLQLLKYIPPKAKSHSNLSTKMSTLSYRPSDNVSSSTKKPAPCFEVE
Protocol: A test of inhibition of angiotensin II to human recombinant (CHO cell) AT1 receptor following a method described in the literature (for example, Regul. Pept., vol. 44 (2), page 131 (1993)) was used to measure inhibitory activity to a test compound.
The ligand used was 10^−9 M of a test compound dissolved in 1% DMSO (dimethylsulfoxide). This was reacted with radioactive iodine-labeled angiotensin II at 37° C. for sixty minutes. Taking the inhibition rate of angiotensin II at 10 μM as nonspecific binding, the specific binding rate was calculated by subtracting this nonspecific portion. Table 6 indicates the results (the inhibition rate at test compound concentration: 10^−9 M)

[2] = tested on: ob/ob mice (C57b1/6ob/ob female mice); test: Glucose tolerance test (in vivo); details: fasted ob/ob mice, oral load 2 g/kg glucose, Example 8 oral 10 mg/kg days 1-25 then 20 mg/kg days 26-33, rosiglitazone 3 mg/kg, n=8
Protocol: (§1) A test compound (the compound of Example 8, n=8) was given orally to 5- to 6-week-old ob/ob mice (C57b1/6ob/ob female mice) at a dose of 10 mg/kg for 1-25 days, then a test compound (the compound of Example 8) was given at 20 mg/kg for 26-33 days. An oral load test of 2 g/kg of glucose was carried out while the mice were fasted, and the blood glucose concentration was measured at −30, 0, 30, 60, 90, 120, and 180 minutes. For comparison, 3 mg/kg of rosiglitazone (n=8) were given for 1-25 days, then 3 mg/kg of rosiglitazone were given for 26-33 days, and the blood glucose concentration was measured in the same manner. Table 7 indicates the results.

[3] = Weight gain test (in vivo); details: ob/ob mice, Example 8 10 mg/kg, rosiglitazone 3 mg/kg, days 1-25
Protocol: as §1
The body weight of mice was measured when 10 mg/kg of the same test compound (the compound of Example 8) were given for 1-25 days, and 3 mg/kg of rosiglitazone were given for 1-25 days. Table 8 indicates the results.

Structure (SMILES): CCCc1nc(COc2ccc(Sc3ccc4nc(COc5ccc(CC6SC(=O)NC6=O)cc5)n(C)c4c3)cc2)c(C(=O)OCC)n1Cc1ccc(-c2ccccc2-c2nnn[nH]2)cc1 (centres unmarked) [Example 29, 4-[4-{2-[4-(2,4-dixothiazolidin-5-ylmethyl)phenoxymethyl]-1-methyl-1H-benzimidazol-6-ylthio}phenoxymethyl]-2-propyl-1-[2′-(1H-tetrazol-5-yl)biphenyl-4-ylmethyl]-1H-imidazole-5-carboxylic acid ethyl ester]
Inhibition rate (%) [1]: 40%

Structure (SMILES): CCCc1nc(CSc2ccc3nc(COc4ccc(CN(CC(=O)O)C(=O)Oc5ccccc5)cc4)n(C)c3c2)c(C(=O)OCC)n1Cc1ccc(-c2ccccc2-c2nnn[nH]2)cc1 [Example 36, N-[4-{6-[5-ethoxycarbonyl-1-{2′-(1H-tetrazol-5-yl)biphenyl-4-ylmethyl}-2-propyl-1H-imidazol-4-ylmethylthio]-1-methyl-1H-benzimidazol-2-ylmethoxy}phenylmethyl]-N-phenyloxycarbonylaminoacetic acid]
inhibition at 0.001 µM [1]: 83%

Structure (SMILES): CCCc1nc2c(C)cc(CN(C)c3ccc4nc(COc5ccc(CC6SC(=O)NC6=O)cc5)n(C)c4n3)cc2n1Cc1ccc(-c2ccccc2C(=O)O)cc1 (centres unmarked) [Example 10, 4′-[6-(N-{2-[4-(2,4-dioxothiazolidin-5-ylmethyl)phenoxymethyl]-3-methyl-3H-imidazo[4,5-b]pyridin-5-yl}-N-methylaminomethyl)-4-methyl-2-propyl-1H-benzimidazol-1-ylmethyl]biphenyl-2-carboxylic acid]
inhibition at 0.001 µM [1]: 41%

Structure (SMILES): CN(CCOc1ccc(CC2SC(=O)NC2=O)cc1)c1ccccn1 (centres unmarked) [Rosiglitazone, rosiglitazone, reference compound]
Glucose concentration ([2]; 0 min): 4.6 ± 0.3 mmol/L
Glucose concentration ([2]; 30 min): 12.5 ± 0.9 mmol/L
Glucose concentration ([2]; 60 min): 4.9 ± 0.3 mmol/L
Glucose concentration ([2]; 120 min): 4.6 ± 0.1 mmol/L
Glucose concentration ([2]; 180 min): 4.6 ± 0.1 mmol/L
Glucose concentration ([2]; −30 min): 4.6 ± 0.3 mmol/L
Weight gain ([3]; day 0): 0 g
Weight gain ([3]; day 4): 1.2 ± 0.1 g
Weight gain ([3]; day 11): 4.5 ± 0.3 g
Weight gain ([3]; day 14): 5.8 ± 0.1 g
Weight gain ([3]; day 18): 7.5 ± 0.2 g
Weight gain ([3]; day 24): 8.9 ± 0.2 g

Structure (SMILES): CCCc1nc(COc2ccc3nc(COc4ccc(CC5SC(=O)NC5=O)cc4)n(C)c3c2)c(C(=O)OCC)n1Cc1ccc(-c2ccccc2-c2nnn[nH]2)cc1 (centres unmarked) [Example 7, 4-{2-[4-(2,4-dioxothiazolidin-5-ylmethyl)phenoxymethyl]-1-methyl-1H-benzimidazol-6-yloxymethyl}-2-propyl-1-[2′-(1H-tetrazol-5-yl)biphenyl-4-ylmethyl]-1H-imidazole-5-carboxylic acid ethyl ester]
inhibition at 0.001 µM [1]: 52%

Structure (SMILES): CCCc1nc2c(C)cc(-c3nc4ccc(N(C)CCOc5ccc6nc(COc7ccc(CC8SC(=O)NC8=O)cc7)n(C)c6c5)cc4n3C)cc2n1Cc1ccc(-c2ccccc2-c2nnn[nH]2)cc1 (centres unmarked) [Example 3, 5-[4-[6-{2-(N-(1-methyl-2-[4-methyl-2-propyl-1-(2′-(1H-tetrazol-5-yl)biphenyl-4-ylmethyl)-1H-benzimidazol-6-yl]-1H-benzamidazol-6-yl)-N-methylamino)ethoxy}-1-methyl-1H-benzimidazol-2-ylmethoxy]benzyl]thiazolidine-2,4-dione]
Inhibition rate (%) [1]: 60%

Structure (SMILES): CCCc1nc(CSCCOc2ccc3nc(COc4ccc(CC5SC(=O)NC5=O)cc4)n(C)c3c2)c(C(=O)OCC)n1Cc1ccc(-c2ccccc2-c2nnn[nH]2)cc1 (centres unmarked) [Example 15, 4-[2-[1-methyl-2-{4-(2,4-dioxothiazolidin-5-ylmethyl)phenoxymethyl}-1H-benzimidazol-6-yloxy]ethylthiomethyl]-2-propyl-1-[2′-(1H-tetrazol-5-yl)biphenyl-4-ylmethyl]-1H-imidazole-5-carboxylic acid ethyl ester]
inhibition at 0.001 µM [1]: 47%

Structure (SMILES): CCCc1nc(CNc2ccc(Oc3ccc4nc(COc5ccc(CC6SC(=O)NC6=O)cc5)n(C)c4c3)cc2)c(C(=O)OCC)n1Cc1ccc(-c2ccccc2-c2nnn[nH]2)cc1 (centres unmarked) [Example 31, 4-{N-[4-[2-(4-[2,4-dioxothiazolidin-5-ylmethyl]phenoxymethyl)-1-methyl-1H-benzimidazol-6-yloxy]phenyl]aminomethyl}-2-propyl-1-[2′-(1H-tetrazol-5-yl)biphenyl-4-ylmethyl]-1H-imidazole-5-carboxylic acid ethyl ester]
inhibition at 0.001 µM [1]: 22%

Next, values leading:

inhibition at 0.001 µM [1]: 87%
Structure (SMILES): CCCc1nc(CSc2ccc3nc(COc4ccc(CC5SC(=O)NC5=O)cc4)n(C)c3c2)c(C(=O)OCC)n1Cc1ccc(-c2ccccc2-c2nnn[nH]2)cc1 (centres unmarked) [Example 33, 4-{2-[4-(2,4-dioxothiazolidin-5-ylmethyl)phenoxymethyl]-1-methyl-1H-benzimidazol-6-ylthiomethyl}-2-propyl-1-[2′-(1H-tetrazol-5-yl)biphenyl-4-ylmethyl]-1H-imidazole-5-carboxylic acid ethyl ester]

inhibition at 0.001 µM [1]: 38%
Structure (SMILES): CCCc1nc(CSCCSc2ccc(Oc3ccc4nc(COc5ccc(CC6SC(=O)NC6=O)cc5)n(C)c4c3)cc2)c(C(=O)OCC)n1Cc1ccc(-c2ccccc2-c2nnn[nH]2)cc1 (centres unmarked) [Example 14, 4-[2-[4-{1-methyl-2-(4-(2,4-dioxothiazolidin-5-ylmethyl)phenoxymethyl)-1H-benzimidazol-6-yloxy}phenylthio]ethylthiomethyl]-2-propyl-1-[2′-(1H-tetrazol-5-yl)biphenyl-4-ylmethyl]-1H-imidazole-5-carboxylic acid ethyl ester]

inhibition at 0.001 µM [1]: 32%
Structure (SMILES): CCCc1nc(C[S+]([O-])c2ccc(Oc3ccc4nc(COc5ccc(CC6SC(=O)NC6=O)cc5)n(C)c4c3)cc2)c(C(=O)OCC)n1Cc1ccc(-c2ccccc2-c2nnn[nH]2)cc1 (centres unmarked) [Example 25, 4-[4-{2-[4-(2,4-dioxothiazolidin-5-ylmethyl)phenoxymethyl]-1-methyl-1H-benzimidazol-6-yloxy}phenylsulfinylmethyl]-2-propyl-1-[2′-(1H-tetrazol-5-yl)biphenyl-4-ylmethyl]-1H-imidazole-5-carboxylic acid ethyl ester]

inhibition at 0.001 µM [1]: 66%
Structure (SMILES): CCCc1nc2c(C)cc(C(=O)NCc3ccc(Oc4ccc5nc(COc6ccc(CC7SC(=O)NC7=O)cc6)n(C)c5c4)cc3)cc2n1Cc1ccc(-c2ccccc2-c2nnn[nH]2)cc1 (centres unmarked) [Example 28, 5-[4-[6-{4-(4-methyl-2-propyl-1-[2′-(1H-tetrazol-5-yl)biphenyl-4-ylmethyl]-1H-benzimidazol-6-ylcarbonylaminomethyl)phenoxy}-1-methyl-1H-benzimidazol-2-ylmethoxy]benzyl]thiazolidin-2,4-dione]
